Source: US20060127400A1, “Activation of regulatory T cells by alpha-melanocyte stimulating hormone” (THE SCHEPENS EYE RESEARCH INSTITUTE, INC., priority 1999, published 2006)
No end group written: not given here.

System: CD3ζ
Test: tyrosine phosphorylation of CD3ζ, immunoprecipitation and anti-phosphotyrosine immunoblot
Type: cell-based, mouse
Procedure: Immunoprecipitation and Immunoblotting. Enriched primed T cells (2×10^6 cells) in a 24 well Corning plate were TCR-stimulated with 2C11 in the presence of α-MSH (30 pg/ml) under serum-free conditions for 15 minutes. The T cells were collected, placed in a microcentrifuge tube and washed once with 10 mM Tris buffered saline (TBS) and lysed for 30 minutes in 100 μl of ice cold lysate buffer (10 mM TBS, 1% NP-40, 0.5% sodium deoxycholate, 0.1% SDS, 100 μg/ml phenylmethylsulfonyl fluoride (PMSF), 60 μg/ml Aprotinin, and 1 mM sodium orthovanadate). The cells were passed through a 21 gauge needles three times, and an additional 2 μl of 10 mg/ml PMSF was added. The tubes were incubated for an additional 30 minutes on ice and were centrifuged for 20 minutes, 4° C., 13,000×g. The supernatant was collected and used as total cellular lysate. The protein concentration was measured, and added to equal amounts of protein lysate were 20 μg/ml anti-CD3ζ antibody, or anti-CD3ε antibody plus rabbit anti-hamster IgG antibody and incubated overnight at 4° C. The rabbit anti-hamster IgG was needed for the CD3ε immunoprecipitation, since much of the CD3ε was bound by 2C11 a hamster anti-mouse […] and hamster antibody weakly binds protein-G. Protein-G sepharose beads (Pharmacia, Piscataway, N.J.) were added to the antibody containing lysates and incubated for 1 hour at room temperature with end over end agitation. The beads were centrifuged and washed 4 times with 10 mM TBS containing 0.5% sodium deoxycholate. After the final wash the beads were resuspended in 20 μl of distilled water and 20 μl non-reducing SDS Tris-glycine sample buffer (Novex, San Diego, Calif.), boiled for 5 minutes and applied into two wells (20 μl) of a 8-16% Tris-glycine polyacrylamide gel (Novex).
Following electrophoresis in a Novex Xcell II minicell and blot module, the proteins were transferred from the gel onto a nitrocellulose membrane (Novex) by electroblotting. The membrane was blocked with 1% BSA in 0.01 M TBS for 1 hour room temperature. The blocked membrane was placed in a sealable bag containing 5 ml of alkaline-phosphatase conjugated anti-phosphotyrosine antibody PY20 diluted 1/2000 in 1% BSA-TBS buffer. The membrane was incubated overnight at room temperature. The PY20 blotted membrane was washed 3 times with wash buffer containing 1% BSA-TBS and 0.05% Tween-20 and incubated with alkaline phosphatase substrate NBT-BCIP (Sigma Chemical) until bands appeared. The membrane was washed with distilled water. In parallel, some lanes on the membrane were immunoblotted with anti-CD3ζ antibody and alkaline phosphatase conjugated anti-mouse IgG (Sigma Chemical) to detect the relative mobility of CD3ζ protein. Membranes were digitally photographed and analyzed using NIH Image software to integrate the band intensities relative to band area minus background. […]
The enriched primed T cells (2×10^6 cells) were incubated with anti-CD3 in the presence of α-MSH (30 pg/ml) for 15 minutes. […] The immunoprecipitates were analyzed by non-reducing SDS-PAGE (on a 8-16% gradient gel), followed by transfer to a nitrocellulose filter and immunoblotting with anti-phosphotyrosine antibody: (1) Unstimulated primed T cells treated with α-MSH; (2) Unstimulated primed T cells incubated in media alone; (3) Enriched primed T cells TCR-stimulated in the absence of α-MSH; (4) Enriched primed T cells TCR-stimulated in the presence of α-MSH. […]

With “α-melanocyte stimulating hormone (SYSMEHFRWGKPV; not fully specified; ends and bridges not checked; UniProt P01189 138-150, looked up) [α-MSH, synthetic α-MSH (Peninsula Laboratories); thirteen-amino acid neuropeptide derived from POMC]” the “increase in CD3ζ tyrosine phosphorylation” value (TCR-stimulated primed T cells, versus stimulated in the absence of α-MSH) was 6.7 fold, the “relative intensity of phosphotyrosine band, CD3ζ” value (TCR-stimulated primed T cells, α-MSH 30 pg/ml, 15 minutes (lane 4; without α-MSH 10)) was 67 and the “overall level of tyrosine phosphorylation of CD3ζ” value (TCR-stimulated primed T cells, α-MSH 30 pg/ml, 15 minutes, Example III (FIG. 18A)) was “no significant change”. The “stimulation of tyrosine phosphorylation of CD3ζ dimers” value (unstimulated primed T cells) was 4 fold and the “relative intensity of phosphotyrosine band, CD3ζ” value (unstimulated primed T cells, α-MSH 30 pg/ml, 15 minutes (lane 1; media alone 1)) was 4.
